pEC50: −log10 of the molar value. Calls of active or inactive are those of the source. The rule behind the calls is not given here.
Experiments:
Bordetella pertussis = experiment: Inhibition of Bordetella pertussis CyaA in mouse J774A.1 cells assessed as cAMP formation at 10 uM by immunoassay relative to control; assay type: cell-based; details: values are per cent of control
Hepatitis C virus [1] = experiment: Antiviral activity against HCV genotype 2a replicon infected in HuH7 cells after 3 days by renilla luciferase assay; assay type: functional, organism-based; details: for Activity: Hepacivirus hominis, Huh-7; for pEC50: Huh-7, 72 h
Hepatitis C virus [2] = experiment: Antiviral activity against HCV genotype 1b replicon infected in HuH7 cells after 3 days by renilla luciferase assay; assay type: functional, organism-based; details: for Activity: Hepacivirus hominis, Huh-7; for pEC50: Huh-7, 72 h
Hepatitis C virus [3] = experiment: Antiviral activity against HCV genotype 1a replicon infected in human HuH7 cells after 3 days by renilla luciferase assay; assay type: functional, organism-based; details: subtype 1a; for Activity: Hepacivirus hominis, Huh-7; for pEC50: Huh-7, 72 h
[4] = Cytotoxicity against human MT4 cells; assay type: cell-based
[5] = test system: Human immunodeficiency virus 1; experiment: Antiviral activity against HIV1 infected in MT4 cells; assay type: functional, organism-based; details: Human immunodeficiency virus 1, MT4
[6] = Cytotoxicity against human HuH7 infected with HCV genotype 1a cells after 3 days by calcein-AM dye based fluorescence analysis; assay type: cell-based, Huh-7; details: HuH7 cells infected with HCV genotype 1a
[7] = Cytotoxicity against human HeLa cells; assay type: cell-based
[8] = Cytotoxicity against human HuH7 infected with HCV genotype 1b cells after 3 days by calcein-AM dye based fluorescence analysis; assay type: cell-based, Huh-7; details: HuH7 cells infected with HCV genotype 1b
Human rhinovirus 1A = experiment: Antiviral activity against HRV1A infected in HeLa cells; assay type: functional, organism-based
[9] = Cytotoxicity against human HuH7 infected with HCV genotype 2a cells after 3 days by calcein-AM dye based fluorescence analysis; assay type: cell-based, Huh-7; details: HuH7 cells infected with HCV genotype 2a
[10] = Selectivity index, ratio of CC50 for human HuH7 cells to EC50 for HCV genotype 1b; design: species or system Huh-7
[11] = Selectivity index, ratio of CC50 for human HuH7 cells to EC50 for HCV genotype 2a; design: species or system Huh-7
[12] = Selectivity index, ratio of CC50 for human HuH7 cells to EC50 for HCV genotype 1a; design: species or system Huh-7

| SMILES | pEC50 [5] | pEC50 (Hepatitis C virus [1]) | pEC50 (Human rhinovirus 1A) | pEC50 (Hepatitis C virus [2]) | pEC50 (Hepatitis C virus [3]) | residual activity (Bordetella pertussis) | Activity (Hepatitis C virus [1]) | Activity (Hepatitis C virus [2]) | Activity (Hepatitis C virus [3]) | CC50 [4] | CC50 at 72 h [6] | CC50 [7] | CC50 at 72 h [8] | CC50 at 72 h [9] | Ratio CC50/EC50 [10] | Ratio CC50/EC50 [11] | Ratio CC50/EC50 [12] |
| --- | --- | --- | --- | --- | --- | --- | --- | --- | --- | --- | --- | --- | --- | --- | --- | --- | --- |
| NC(=O)[C@H](Cn1cnc2c(N)ncnc21)OCP(=O)(O)O |  |  |  |  |  | 66% | inactive | inactive | inactive |  |  |  |  |  |  |  |  |
| CCOC(=O)[C@H](C)NC(=O)[C@H](Cn1cnc2c(N)ncnc21)OCP(=O)(N[C@@H](C)C(=O)OCC)N[C@@H](C)C(=O)OCC | < 4.27 | < 4.35 | < 4.30 | < 4.35 | < 4.35 |  |  |  |  | > 53.2 µM | > 44.4 µM | > 50 µM | > 44.4 µM | > 44.4 µM |  |  |  |
| COC(=O)[C@H](Cn1cnc2c(N)ncnc21)OCP(=O)(O)O |  |  |  |  |  | 90% | inactive | inactive | inactive |  |  |  |  |  |  |  |  |
| Nc1ncnc2c1ncn2C[C@H](OCP(=O)(O)O)C(=O)NC1CC1 |  |  |  |  |  | 135% | inactive | inactive | inactive |  |  |  |  |  |  |  |  |
| CCOC(=O)[C@H](Cc1ccccc1)NP(=O)(CO[C@@H](Cn1cnc2c(N)ncnc21)C(=O)OC)Oc1ccccc1 (some centres not stated) | < 4.27 | 6.22 | < 4.30 | 5.82 | 6.10 | 68% |  |  |  | 1.4 µM | 42.6 µM | > 50 µM | > 44.4 µM | 25.3 µM | 30 | 30 | 30 |
| Nc1ncnc2c1ncn2C[C@H](OCP(=O)(O)O)C(=O)O | < 4.27 | < 4.35 | < 4.30 | < 4.35 | < 4.35 |  |  |  |  | > 53.2 µM | > 44.4 µM | > 50 µM | > 44.4 µM | > 44.4 µM |  |  |  |

Second part, led by results:

| pEC50 [5] | pEC50 (Hepatitis C virus [1]) | pEC50 (Human rhinovirus 1A) | pEC50 (Hepatitis C virus [2]) | pEC50 (Hepatitis C virus [3]) | SMILES | residual activity (Bordetella pertussis) | Activity (Hepatitis C virus [1]) | Activity (Hepatitis C virus [2]) | Activity (Hepatitis C virus [3]) | CC50 [4] | CC50 at 72 h [6] | CC50 [7] | CC50 at 72 h [8] | CC50 at 72 h [9] | Ratio CC50/EC50 [10] | Ratio CC50/EC50 [11] | Ratio CC50/EC50 [12] |
| --- | --- | --- | --- | --- | --- | --- | --- | --- | --- | --- | --- | --- | --- | --- | --- | --- | --- |
| < 4.27 | 4.41 | < 4.30 | < 4.35 | < 4.35 | CCOC(=O)[C@H](C)NP(=O)(CO[C@@H](Cn1cnc2c(N)ncnc21)C(=O)OC)N[C@@H](C)C(=O)OCC | 139% |  |  |  | 40.5 µM | > 44.4 µM | > 50 µM | > 44.4 µM | > 44.4 µM |  |  |  |
| < 4.27 | 6.22 | < 4.30 | 5.96 | 6.22 | CCOC(=O)[C@H](Cc1ccccc1)NP(=O)(CO[C@@H](Cn1cnc2c(N)ncnc21)C(=O)OC)N[C@@H](Cc1ccccc1)C(=O)OCC | 112% |  |  |  | 0.7 µM | 18.3 µM | > 50 µM | 30.4 µM | 12.6 µM | 30 | 30 | 30 |
| < 4.27 | 5.02 | < 4.30 | 4.51 | 4.69 | CCCCCCCCCCCCCCCCOCCCOP(=O)(O)CO[C@@H](Cn1cnc2c(N)ncnc21)C(=O)OC | 140% |  |  |  | 3.7 µM | > 44.4 µM | > 50 µM | > 44.4 µM | > 44.4 µM |  |  |  |

Source: ChEMBL document CHEMBL3751689, “Synthesis and biological properties of prodrugs of (S)-3-(adenin-9-yl)-2-(phosphonomethoxy)propanoic acid” (Eur J Med Chem, 2016)
